Data on nine compounds can be found in PubChem BioAssay (NCI).

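Test compounds were applied to cells in 96-well plates for 48 hours at 5 doses. The concentration for 50% growth inhibition is given as GI50. TGI is the concentration that stops growth completely.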

Some test systems named below: 786-0 renal; K-562 leukemia; MALME-3M melanoma; MCF7 breast; MDA-MB-435; NCI-H23 lung; NCI-H460 lung; OVCAR-8 ovarian; RXF 393 renal; UACC-257 melanoma.
Common to all, as to assay: DTP human tumour cell line panel, 48 h

Usually GI50 stands for the concentration that inhibits growth by half. The term TGI denotes the concentration giving total growth inhibition. In the case of `COc1ccc(/C=C/C(=O)c2cc(OC)c(OC)c(OC)c2)cc1OCc1cn(Cc2ccc(F)cc2)nn1`, the GI50 is 4.44 µM in the test on 786-0 renal; 3.6 µM in the test on K-562 leukemia; 72.5 µM in the test on MALME-3M melanoma; 2.43 µM in the test on MCF7 breast; 2.78 µM in the test on MDA-MB-435; 18.9 µM in the test with NCI-H23 lung. Further, the GI50 with NCI-H460 lung was 3.3 µM; with OVCAR-8 ovarian, 2.58 µM; in the test with RXF 393 renal, 1.9 µM; with UACC-257 melanoma it was 4.9 µM. The TGI with 786-0 renal is greater than 100 µM; in the test on K-562 leukemia, greater than 100 µM; in the test on MALME-3M melanoma, greater than 100 µM; with MCF7 breast it was greater than 100 µM; in the test on MDA-MB-435, greater than 100 µM; in the test with NCI-H23 lung it was 64.2 µM. Moreover, the TGI with NCI-H460 lung was 15.4 µM; in the test on OVCAR-8 ovarian it was 31.5 µM; with RXF 393 renal it was 5.51 µM; with UACC-257 melanoma, greater than 100 µM.
`COc1cccc(N2CCN(CC(=O)N3CCN(c4nnc(-c5ccc(Cl)cc5)c(-c5ccc(Cl)cc5)n4)CC3)CC2)c1`: the GI50 with 786-0 renal was 16.3 µM; in the test with K-562 leukemia it was 9.89 µM; in the test on MALME-3M melanoma, 20.6 µM; in the test with MCF7 breast, 5.14 µM; in the test with MDA-MB-435, 9.26 µM; in the test with NCI-H23 lung it was 33.6 µM. In addition, the GI50 is 24.5 µM in the test on NCI-H460 lung, 29.4 µM in the test on OVCAR-8 ovarian, 28.7 µM in the test on RXF 393 renal and 51.7 µM in the test with UACC-257 melanoma. The TGI is 62.3 µM in the test with 786-0 renal; greater than 100 µM with K-562 leukemia; greater than 100 µM in the test on MALME-3M melanoma; 61.3 µM with MCF7 breast; greater than 100 µM with MDA-MB-435; greater than 100 µM in the test on NCI-H23 lung. The total growth inhibition concentration (TGI) in the test on NCI-H460 lung, in the test with OVCAR-8 ovarian, with RXF 393 renal and with UACC-257 melanoma was greater than 100 µM in each case.
`COc1ccc2[nH]cc(-c3ccc(-c4c[nH]c5ccc(OC)cc45)s3)c2c1`: the GI50 in the test on 786-0 renal was 2.36 µM; in the test with K-562 leukemia, 2.54 µM; in the test on MALME-3M melanoma, 9.13 µM; in the test with MCF7 breast, 4.72 µM; with MDA-MB-435, 8.32 µM; with NCI-H23 lung, 6.36 µM. The GI50 is 2.88 µM in the test on NCI-H460 lung, 5.86 µM with OVCAR-8 ovarian, 3.51 µM in the test with RXF 393 renal and 11.4 µM in the test on UACC-257 melanoma. The TGI in the test with 786-0 renal was 7.64 µM; in the test with K-562 leukemia, 7.3 µM; in the test with MALME-3M melanoma it was 22.4 µM; in the test with MCF7 breast, 27 µM; in the test on MDA-MB-435, greater than 41.4 µM; in the test with NCI-H23 lung, 26.2 µM. For the same compound, the TGI in the test with NCI-H460 lung was 9.32 µM; in the test on OVCAR-8 ovarian it was greater than 49.9 µM; with RXF 393 renal, 13.6 µM; in the test with UACC-257 melanoma it was greater than 46.5 µM.
As for `C[C@]12CC[C@@H]3c4ccc(OC(=O)N(CCCl)CCCl)cc4CC[C@H]3[C@@H]1CC[C@@H]2O`, the GI50 in the test with 786-0 renal was 2.83 µM; with MALME-3M melanoma, 1.16 µM; in the test on MCF7 breast, 1.08 µM; with MDA-MB-435 it was 0.354 µM; with NCI-H23 lung, 2.79 µM; with NCI-H460 lung, 2.75 µM. The GI50 was 3.85 µM in the test on OVCAR-8 ovarian, 2.23 µM in the test on RXF 393 renal and 3.81 µM with UACC-257 melanoma. Besides, the TGI with 786-0 renal was 13.7 µM; in the test with K-562 leukemia it was greater than 47.5 µM; in the test with MALME-3M melanoma, 7.52 µM; with MDA-MB-435, 6.15 µM; in the test with NCI-H460 lung, 12.9 µM; in the test on RXF 393 renal it was 6.42 µM. Besides, the TGI with UACC-257 melanoma was determined as 15 µM.
Regarding `C[C@@]1(C(=O)O)CCC[C@]2(C)C1CC[C@@]13CC(=O)[C@@](CO)(CC[C@]12O)C3` (stereo partly specified), the GI50 in the test on 786-0 renal was greater than 100 µM; in the test with K-562 leukemia, greater than 100 µM; in the test on MALME-3M melanoma it was 24.1 µM; with MCF7 breast, greater than 100 µM; in the test on MDA-MB-435, greater than 100 µM; with NCI-H23 lung, greater than 100 µM. In addition, the GI50 in the test with NCI-H460 lung, in the test with OVCAR-8 ovarian, with RXF 393 renal and in the test with UACC-257 melanoma was greater than 100 µM each time. The TGI in the test with 786-0 renal, in the test on K-562 leukemia, in the test on MALME-3M melanoma, in the test with MCF7 breast, in the test with MDA-MB-435 and with NCI-H23 lung was greater than 100 µM throughout. Moreover, the concentration for total growth inhibition (TGI) with NCI-H460 lung, in the test with OVCAR-8 ovarian, with RXF 393 renal and in the test with UACC-257 melanoma was greater than 100 µM throughout.
As to `C/C(=N\NC(=S)N1CC2CCC(CC2)C1)c1nccs1`, the TGI in the test with 786-0 renal came to 7.55 µM; with K-562 leukemia, 9.9 µM; in the test on MALME-3M melanoma it was 13.9 µM; in the test on MCF7 breast, 14 µM; in the test on MDA-MB-435 it was 12.7 µM; in the test with NCI-H23 lung, 13 µM. For the same compound, the TGI was determined as 3.67 µM in the test on NCI-H460 lung, 13.1 µM in the test on OVCAR-8 ovarian, 5.39 µM in the test on RXF 393 renal and 6.06 µM in the test with UACC-257 melanoma.
Turning to `COc1cc(C(O)CCBr)c(OC)cc1C` (stereo unspecified), the TGI is greater than 100 µM in the test on 786-0 renal; greater than 100 µM in the test on K-562 leukemia; greater than 100 µM in the test on MALME-3M melanoma; 54.7 µM in the test on MCF7 breast; greater than 42.6 µM with MDA-MB-435; greater than 100 µM with NCI-H23 lung. The TGI in the test with NCI-H460 lung was greater than 100 µM; with OVCAR-8 ovarian, greater than 46.8 µM; in the test on RXF 393 renal it was greater than 100 µM; in the test with UACC-257 melanoma it was greater than 100 µM.
Take `N#CC1(C#N)C2(c3ccccc3)OC(c3ccccc3)(c3cc4ccccc4cc32)C1(C#N)C#N`: the TGI with 786-0 renal turned out to be 21.3 µM; in the test with K-562 leukemia it was 8.18 µM; with MALME-3M melanoma it was 37.9 µM; in the test with MCF7 breast, 27.8 µM; in the test with MDA-MB-435 it was 31.7 µM; with NCI-H23 lung it was 16.6 µM. Further, the TGI with NCI-H460 lung is 41.7 µM; with OVCAR-8 ovarian, 26.8 µM; with RXF 393 renal, 13.8 µM; in the test on UACC-257 melanoma, greater than 54.2 µM.
Consider `C/C=C(\C)C(=O)NC1=CC[C@@]2(C)C(=CCC3C2CC[C@@]2(C)C3CC[C@@H]2C(C)N(C)C)C1=O` (stereo partly specified), for which the GI50 with 786-0 renal is 2.54 µM; with K-562 leukemia, 0.451 µM; with MALME-3M melanoma, 2.1 µM; with MCF7 breast, 2.79 µM; with MDA-MB-435, 2.35 µM; in the test on NCI-H23 lung, 3.95 µM. The GI50 in the test on NCI-H460 lung was 2.06 µM; in the test on OVCAR-8 ovarian, 10.1 µM; with RXF 393 renal it was 1.56 µM; in the test on UACC-257 melanoma, 2.88 µM. Further, the TGI in the test with 786-0 renal turned out to be 7.45 µM; with K-562 leukemia, 2.86 µM; with MALME-3M melanoma, 5.34 µM; with MCF7 breast it was 14.2 µM; with MDA-MB-435, 7.08 µM; in the test with NCI-H23 lung, 25.1 µM. For the same compound, the concentration for total growth inhibition (TGI) was 4.98 µM in the test on NCI-H460 lung, greater than 77.9 µM with OVCAR-8 ovarian, 4.53 µM with RXF 393 renal and 9.36 µM in the test on UACC-257 melanoma.
